Test system: Alternaria solani
Assay: Alternaria test (tomato)/protective
Format: in vivo
Details: 168 h, young tomato plants sprayed, inoculated one day after treatment, evaluation 7 days after inoculation, read-out: Efficacy in %
Protocol: (§1) To produce a suitable preparation of active compound, 1 part by weight of active compound is mixed with the stated amounts of solvent and emulsifier, and the concentrate is diluted with water to the desired concentration.
To test for protective activity, young tomato plants are sprayed with the active compound preparation at the stated application rate. One day after the treatment, the plants are inoculated with a spore suspension of Alternaria solani and then remain at 100% relative humidity and 20° C. for 24 h. The plants then remain at 96% relative atmospheric humidity and a temperature of 20° C.
(§2) Evaluation is carried out 7 days after the inoculation. 0% means an efficacy which corresponds to that of the control, whereas an efficacy of 100% means that no infection is observed.

Row | SMILES | pest or weed control at 500 ppm [%]
1 | O=C(c1ccccc1Cl)N(C(=O)c1ccccc1Cl)c1ncncc1-c1ccc(OC(F)(F)F)cc1 | 70
2 | O=C(c1ccccc1Cl)N(C(=O)c1ccccc1Cl)c1ncncc1-c1ccc(Br)cc1 [drawing 86] | 71
3 | O=C(Nc1ncncc1-c1ccc(OC(F)(F)F)cc1)c1ccccc1I [drawing 83] | 100
4 | O=C(c1ccccc1Cl)N(C(=O)c1ccccc1Cl)c1ncncc1-c1ccc(C(F)(F)F)cc1 [drawing 84] | 100
5 | O=C(Nc1ncncc1-c1ccc(Cl)c(Cl)c1)c1ccccc1Cl [drawing 82] | 100
6 | O=C(c1ccccc1Cl)N(C(=O)c1ccccc1Cl)c1ncncc1-c1ccc(Cl)c(Cl)c1 [drawing 87] | 95
7 | Cc1ccsc1C(=O)Nc1ncncc1-c1ccc(OC(F)(F)F)cc1 | 70
8 | O=C(Nc1ncncc1-c1ccc(OC(F)(F)F)cc1)c1ccccc1Cl [drawing 89] | 95
9 | Cn1cc(C(=O)Nc2ncncc2-c2ccc(Cl)c(Cl)c2)c(C(F)(F)F)n1 [drawing 90] | 95
10 | O=C(Nc1ncncc1-c1ccc(Cl)cc1)c1ccccc1C(F)(F)F [drawing 78] | 100
11 | O=C(Nc1ncncc1-c1ccc(Br)cc1)c1ccccc1I [drawing 79] | 100
12 | O=C(Nc1ncncc1-c1ccc(Cl)c(Cl)c1)c1ccccc1I [drawing 80] | 100
13 | O=C(Nc1ncncc1-c1ccc(C(F)(F)F)cc1)c1ccccc1Cl [drawing 85] | 100
14 | O=C(Nc1ncncc1-c1ccc(Br)cc1)c1ccccc1Cl [drawing 81] | 100

Test system: Podosphaera leucotricha
Assay: Podosphaera test (apple)/protective
Format: in vivo
Details: 100 ppm; young apple plants sprayed; evaluation 10 days after inoculation
Protocol: (§3) To produce a suitable preparation of active compound, 1 part by weight of active compound is mixed with the stated amounts of solvents and emulsifier, and the concentrate is diluted with water to the desired concentration.
(§4) To test for protective activity, young plants are sprayed with the active compound preparation at the stated application rate. After the spray coating has dried on, the plants are inoculated with an aqueous spore suspension of the apple mildew pathogen Podosphaera leucotricha. The plants are then placed in a greenhouse at about 23° C. and a relative atmospheric humidity of about 70%.
(§5) Evaluation is carried out 10 days after the inoculation. 0% means an efficacy which corresponds to that of the control, whereas an efficacy of 100% means that no infection is observed.

Row | SMILES | Efficacy in % [%]
15 | O=C(Nc1ncncc1-c1ccc(Br)cc1)c1ccccc1I [drawing 94] | 87
16 | O=C(Nc1ncncc1-c1ccc(Cl)c(Cl)c1)c1ccccc1I [drawing 95] | 93
17 | O=C(Nc1ncncc1-c1ccc(C(F)(F)F)cc1)c1ccccc1Cl [drawing 96] | 93

Test system: Venturia inaequalis
Assay: Venturia test (apple)/protective
Format: in vivo
Details: 100 ppm; young apple plants sprayed; evaluation 10 days after inoculation
Protocol: as §3
as §4, with “conidia” for “spore”, “scab” for “mildew”, “Venturia inaequalis and then remain in an incubation cabin at about 20° C. and 100% relative atmospheric humidity for 1 day.” for “Podosphaera leucotricha.”, “21°” for “23°”, “90%.” for “70%.”
as §5

Row | SMILES | Efficacy in % [%]
18 | O=C(Nc1ncncc1-c1ccc(Cl)c(Cl)c1)c1ccccc1C(F)(F)F [drawing 98] | 95
19 | Cc1nc(C(F)(F)F)c(C(=O)Nc2ncncc2-c2ccc(Cl)c(Cl)c2)s1 [drawing 97] | 95

Test system: Sphaerotheca fuliginea
Assay: Sphaerotheca test (cucumber)/protective
Format: in vivo
Details: 500 ppm; young cucumber plants sprayed, inoculated one day after treatment; evaluation 7 days after inoculation
Protocol: as §1
To test for protective activity, young cucumber plants are sprayed with the active compound preparation at the stated application rate. One day after the treatment, the plants are inoculated with a spore suspension of Sphaerotheca fuliginea. The plants are then placed in a greenhouse at 70% relative atmospheric humidity and a temperature of 23° C.
as §2

Row | SMILES | Efficacy in % [%]
20 | Cn1cc(C(=O)Nc2ncncc2-c2ccc(Cl)c(Cl)c2)c(C(F)(F)F)n1 [drawing 77] | 95
21 | O=C(Nc1ncncc1-c1ccc(Cl)cc1)c1ccccc1C(F)(F)F [drawing 72] | 78
22 | O=C(Nc1ncncc1-c1ccc(Cl)c(Cl)c1)c1ccccc1I [drawing 74] | 100
23 | O=C(Nc1ncncc1-c1ccc(Cl)c(Cl)c1)c1ccccc1Cl [drawing 75] | 90
24 | O=C(Nc1ncncc1-c1ccc(OC(F)(F)F)cc1)c1ccccc1I [drawing 76] | 95
25 | O=C(Nc1ncncc1-c1ccc(Br)cc1)c1ccccc1I [drawing 73] | 95

Test system: Pyrenophora teres
Assay: Pyrenophora teres test (barley)/protective
Format: in vivo
Details: 1000 ppm; young barley plants sprayed; evaluation 8 days after inoculation
Protocol: as §1
To test for protective activity, young plants are sprayed with the active compound preparation at the stated application rate. After the spray coating has dried on, the plants are sprayed with a conidia suspension of Pyrenophora teres. The plants remain in an incubation cabin at 20° C. and 100% relative atmospheric humidity for 48 hours. The plants are then placed in a greenhouse at a temperature of about 20° C. and a relative atmospheric humidity of about 80%.
Evaluation is carried out 8 days after the inoculation. 0% means an efficacy which corresponds to that of the control, whereas an efficacy of 100% means that no infection is observed.

Row | SMILES | Efficacy in % [%]
26 | O=C(Nc1ncncc1-c1ccc(Br)cc1)c1ccccc1I [drawing 92] | 89
27 | O=C(Nc1ncncc1-c1ccc(Cl)c(Cl)c1)c1ccccc1I [drawing 93] | 100

Test system: not listed separately
Assay: logP determination by HPLC on a reverse-phase column (EEC Directive 79/831 Annex V.A8)
Format: physicochemical
Details: reverse-phase C18 HPLC column; pH 2.3; HPLC reverse-phase C 18, 43° C., 0.1% aqueous phosphoric acid and acetonitrile
Protocol: The determination is carried out in the acidic range at pH 2.3 using the mobile phases 0.1% aqueous phosphoric acid and acetonitrile; linear gradient from 10% acetonitrile to 90% acetonitrile.

Row | chromatographic logP | SMILES
28 | 4.12 | O=C(c1ccccc1Cl)N(C(=O)c1ccccc1Cl)c1ncncc1-c1ccc(C(F)(F)F)cc1 [Example 12]
29 | 2.62 | O=C(Nc1ncncc1-c1ccc(C(F)(F)F)cc1)c1ccccc1Cl [Example 13]
30 | 2.46 | Cn1cc(C(=O)Nc2ncncc2-c2ccc(Cl)c(Cl)c2)c(C(F)(F)F)n1 [Example 19]
31 | 2.46 | O=C(Nc1ncncc1-c1ccc(Br)cc1)c1ccccc1Cl [Example 9]
32 | 2.61 | O=C(Nc1ncncc1-c1ccc(Br)cc1)c1ccccc1I [Example 7]
33 | 2.73 | O=C(c1ccccc1Cl)N(C(=O)c1ccccc1Cl)c1ncncc1-c1ccc(Br)cc1 [Example 14]
34 | 2.73 | O=C(Nc1ncncc1-c1ccc(Cl)c(Cl)c1)c1ccccc1Cl [Example 10]
35 | 2.85 | Cc1nc(C(F)(F)F)c(C(=O)Nc2ncncc2-c2ccc(Cl)c(Cl)c2)s1 [Example 2, N-[5-(3,4-dichlorophenyl)-4-pyrimidinyl]-2-methyl-4-(trifluoromethyl)-1,3-thiazole-5-carboxamide]
36 | 0.87 | Nc1ncncc1-c1ccc(Cl)c(Cl)c1 [III-1, 5-(3,4-dichlorophenyl)-4-pyrimidinylamine]
37 | 2.89 | O=C(Nc1ncncc1-c1ccc(Cl)c(Cl)c1)c1ccccc1I [Example 8]
38 | 2.92 | O=C(Nc1ncncc1-c1ccc(Cl)c(Cl)c1)c1ccccc1C(F)(F)F [Example 6]
39 | 2.46 | O=C(c1ccccc1Cl)N(C(=O)c1ccccc1Cl)c1ncncc1-c1ccc(Cl)c(Cl)c1 [Example 15]
40 | 2.57 | O=C(Nc1ncncc1-c1ccc(Cl)cc1)c1ccccc1C(F)(F)F [Example 1, N-[5-(4-chlorophenyl)-4-pyrimidinyl]-2-(trifluoromethyl)benzamide]

Test system: Botrytis cinerea
Assay: Botrytis test (bean)/protective
Format: in vivo
Details: 48 h, young bean plants sprayed, size of infected areas two days after inoculation, read-out: Efficacy in %
Protocol: as §3
To test for protective activity, young plants are sprayed with the active compound preparation at the stated application rate. After the spray coating has dried on, two small pieces of agar colonized by Botrytis cinerea are placed onto each leaf. The inoculated plants are placed in a dark chamber at about 20° C. and 100% relative atmospheric humidity.
Two days after the inoculation, the size of the infected areas on the leaves is evaluated. 0% means an efficacy which corresponds to that of the control, whereas an efficacy of 100% means that no infection is observed.

Row | SMILES | pest or weed control at 500 ppm [%]
41 | O=C(Nc1ncncc1-c1ccc(C(F)(F)F)cc1)c1ccccc1Cl [drawing 105] | 100
42 | O=C(Nc1ncncc1-c1ccc(Cl)c(Cl)c1)c1ccccc1Cl [drawing 103] | 91
43 | O=C(Nc1ncncc1-c1ccc(Cl)c(Cl)c1)c1ccccc1I [drawing 101] | 96
44 | O=C(Nc1ncncc1-c1ccc(Br)cc1)c1ccccc1Cl [drawing 102] | 99
45 | O=C(Nc1ncncc1-c1ccc(OC(F)(F)F)cc1)c1ccccc1I [drawing 104] | 89
46 | O=C(Nc1ncncc1-c1ccc(OC(F)(F)F)cc1)c1ccccc1Cl [drawing 106] | 79
47 | Cc1nc(C(F)(F)F)c(C(=O)Nc2ncncc2-c2ccc(Cl)c(Cl)c2)s1 [drawing 99] | 91
48 | O=C(Nc1ncncc1-c1ccc(Cl)c(Cl)c1)c1ccccc1C(F)(F)F [drawing 100] | 80

Reference: patent US20090163516A1, “CARBOXAMIDES FOR CONTROLLING UNDESIRED MICRO-ORGANISMS IN PLANT PROTECTION” (Bayer Cropscience AG, priority 2005, published 2009)
